Source: patent publication US9126968B2, “Quinic acid derivative, process for preparation and uses thereof” (NATIONAL APPLIED RESEARCH LABORATORIES, priority 2013, dated 2015)
Converted amounts (≈) assume the structure as drawn. “Also recorded” adds a separate entry of the source.

Legend:
[1] = test system: IL-2 expressed from signal 2 pathway of T-cells; experiment: in vitro IC50 measurement (reduction of IL-2); type: cell-based; conditions: T-cell; dosage causing 50% reduction of IL-2; FIG. 8; read-out: IC50 on blocking T-cell immune response
From the text: The IC50 represents the dosage which causes 50% reduction of IL-2 expressed from signal 2 pathway of T-cells.

OVA-sensitized mice [2] = experiment: in vivo animal test of immuno-suppressive effect (serum antibodies via ELISA); conditions: OVA-sensitized BALB/c mice, serum on 14th day, FIG. 9
Experimental: The four BALB/c mice groups are treated with phosphate-buffered saline (PBS), ovalbulmin (OVA), OVA/Cyn-1324 or OVA/cyclosporin A (CSA), respectively. CSA is used currently in clinics for suppressing immune response. The 14th-day from the treatments, the serum is collected, and the antibodies such as IgG and IgE are analyzed via ELISA. […] Accordingly, Cyn-1324 is effective for suppressing immune response.

[3] = target: CD28 of T-cells and CD80 of B-cells (Homo sapiens, UniProt P10747); experiment: unbinding force test; type: binding; conditions: in the presence of Cyn-1324; about 41.9 pN in its absence; FIG. 7
Sequence of CD28 of T-cells and CD80 of B-cells (P10747 19-220): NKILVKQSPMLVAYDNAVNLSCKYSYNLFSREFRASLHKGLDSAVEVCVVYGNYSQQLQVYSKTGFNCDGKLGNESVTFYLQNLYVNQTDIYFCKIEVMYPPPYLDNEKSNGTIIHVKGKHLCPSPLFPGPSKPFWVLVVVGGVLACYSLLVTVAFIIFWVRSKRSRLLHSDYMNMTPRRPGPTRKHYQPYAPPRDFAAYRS
From the text: In the absence of Cyn-1324, the average unbinding force is about 41.9 pN. Conversely, in the presence of Cyn-1324, the average unbinding force is reduced to about 29.1 pN. The results shown in FIG. 7 provide the physical evidence that Cyn-1324 repulses the binding between CD28 and CD80, thus blocking the signal 2 pathway induced by the interaction of CD28 and co-stimulatory molecules such as CD80 or CD86.

[4] = single dose toxicity test; conditions: mouse, in vivo, mice, read-out: maximum tolerance dose (MTD)
[5] = mouse, in vivo
Experimental: One of the four mice groups is treated with PBS, and three of the four groups are sensitized with OVA.

T-cells [6] = experiment: in vitro efficacy test: production of IL-2 from T-cells; type: cell-based; conditions: compared with cynarin; FIG. 6
From the text: The production of IL-2 is reduced when the activation of T-cells is interfered.

T-cells [7] = experiment: in vitro cytotoxicity test (MTT assay); type: cell-based; conditions: compared with cynarin, FIG. 5
Experimental: The amount of survival T-cells is measured by MTT assay. […] Conversely, they are less cytotoxic than cynarin.

OVA-sensitized mice [8] = conditions: mouse, in vivo

CC(C)CNC(=O)[C@@]1(O)C[C@@H](O)[C@@H]2OC3(CCCCC3)O[C@@H]2C1 [Cyn-1324, (3aR,5R,7R,7aS)-5,7-dihydroxy-N-(2-methylpropyl)hexahydrospiro[1,3-benzodioxole-2,1′-cyclohexane]-5-carboxamide]
IC50 [1]: ~20 µg/mL (≈ 61.1 µM)
IgE decrease (OVA-sensitized mice [2]): about 23%
IgG decrease (OVA-sensitized mice [2]): about 30%
average unbinding force [3]: about 29.1 pN
MTD [4]: ~400 mg/kg
body weight variation versus time [5]: steadily increased
efficacy to suppress T-cell activation (production of IL-2) (T-cells [6]): higher (or equal) efficacy; also recorded: high efficacy
cell survival rates of T-cells (cytotoxicity) (T-cells [7]): higher than cynarin; also recorded: lowest cytotoxicity
side effect: body swollen (OVA-sensitized mice [8]): does not cause the similar side effect
